pIC50: −log10 of the molar value. ≈ marks a conversion by molar mass, not a printed value.
Key:
α-glucosidase = details: cited from earlier work
α-amylase = details: earlier studies; cited from earlier work
[1] = target: T1, Porcine pancreatic α-amylase (Sus scrofa, UniProt P00690); test: α-Amylase inhibitory assay (potato starch, DNS); assay type: biochemical; details: mean ± SD (n = 3)
T1 construct: purchased Sigma-Aldrich
T1 sequence (P00690 16-511): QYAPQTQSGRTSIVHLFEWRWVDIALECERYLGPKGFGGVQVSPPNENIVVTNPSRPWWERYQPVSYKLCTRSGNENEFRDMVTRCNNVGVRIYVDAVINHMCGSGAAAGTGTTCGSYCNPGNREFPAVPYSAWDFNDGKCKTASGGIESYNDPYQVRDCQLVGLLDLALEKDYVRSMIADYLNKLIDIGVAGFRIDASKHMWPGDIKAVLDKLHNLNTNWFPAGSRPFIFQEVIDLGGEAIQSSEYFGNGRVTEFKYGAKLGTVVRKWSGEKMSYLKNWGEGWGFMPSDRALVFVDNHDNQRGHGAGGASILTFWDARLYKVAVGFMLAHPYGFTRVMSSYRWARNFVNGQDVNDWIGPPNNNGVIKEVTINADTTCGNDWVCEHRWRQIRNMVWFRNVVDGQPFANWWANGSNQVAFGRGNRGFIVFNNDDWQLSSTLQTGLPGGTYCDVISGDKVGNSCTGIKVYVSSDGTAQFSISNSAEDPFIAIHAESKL

[2] = system: bovine serum albumin (BSA); test: Protein glycation inhibitory assay (BSA–fructose model); assay type: biochemical
Method: The ability of the plant extracts/compounds to inhibit fructose-induced protein glycation was determined according to a method previously published with minor modifications. […] Briefly, fructose solution (600 µL) was mixed with BSA (600 µL) and 600 µL tested extracts/compounds at different concentrations and then the reaction mixture was incubated in the capped amber vials in the dark at 37 °C for six days.

[3] = BSA–fructose model, 37 °C, six days, mean ± SD (n = 3)

| pIC50 [1] | Compound | type of α-glucosidase inhibition (α-glucosidase) | IC50 Protein Glycation [2, 3] | also measured |
| --- | --- | --- | --- | --- |
|  | C[C@H]1O[C@H](O[C@H]2[C@H](O)[C@@H](O)[C@@H](O[C@H]3[C@H](O)[C@@H](O)C(O)O[C@@H]3CO)O[C@@H]2CO)[C@H](O)[C@@H](O)[C@@H]1N[C@H]1C=C(CO)[C@@H](O)[C@H](O)[C@H]1O (stereo partly shown) [AR, acarbose] | competitively interacts |  | type of α-amylase inhibition (α-amylase): mixed type |
| < 3.06 | O=c1c(O[C@@H]2O[C@H](CO)[C@H](O)[C@H](O)[C@H]2O)c(-c2ccc(O)c(O)c2)oc2cc(O)cc(O)c12 [HP, hyperoside] |  | 14.34 ± 1.15 ^A, B µg/mL |  |
|  | N=C(N)NN [AG, aminoguanidine] |  | 71.09 ± 4.20 ^D µg/mL | IC50 Protein Glycation ([2]; BSA–fructose model, 37 °C, six days, mean ± SD (n = 3), listed as aminoguanidine): 71.1 µg/mL (≈ 960 µM) |
|  | Oc1cc(O)c2c(c1)O[C@H](c1ccc(O)c(O)c1)[C@@H](O)[C@@H]2c1c(O)cc(O)c2c1O[C@H](c1ccc(O)c(O)c1)[C@@H](O)C2 [B3] |  |  | type of interaction with α-glucosidase (α-glucosidase): noncompetitive interaction |
|  | Oc1cc(O)c2c(c1)O[C@H](c1ccc(O)c(O)c1)[C@@H](O)C2 [(+)-catechin] | mixed-type inhibitors |  |  |
| < 3.16 | Oc1cc(O)c2c(c1)O[C@H](c1ccc(O)c(O)c1)[C@H](O)C2 [ECA, (–)-epicatechin] | mixed-type inhibitors | 8.79 ± 0.13 ^A, B µg/mL |  |
|  | O=c1c(O[C@@H]2O[C@H](CO)[C@H](O)[C@H](O)[C@H]2O[C@@H]2OC[C@@H](O)[C@H](O)[C@H]2O)c(-c2ccc(O)c(O)c2)oc2cc(O)cc(O)c12 [QPH, quercetin 3-O-β-D-(2″-O-β-D-xylopyranosyl)galactopyranoside] |  | 15.78 ± 1.14 ^A, B µg/mL | IC50 α-Amylase [1]: >400 µg/mL |
|  | C[C@@H]1O[C@@H](OC[C@H]2O[C@@H](Oc3c(-c4ccc(O)c(O)c4)oc4cc(O)cc(O)c4c3=O)[C@H](O)[C@@H](O)[C@@H]2O)[C@H](O)[C@H](O)[C@H]1O [rutin] | mixed type |  |  |
| < 2.87 | O=C(O)CC(OC(=O)/C=C/c1ccc(O)c(O)c1)C(=O)O (stereo not shown) [CAD, caffeoylmalic acid] |  |  | IC50 Protein Glycation ([2]; bovine, 6 days, pH 7.4): 17.26 ± 1.09 ^B µg/mL |
| < 3.46 | Oc1cc(O)c2c(c1)O[C@H](c1ccc(O)c(O)c1)[C@H](O)[C@H]2c1c(O)cc(O)c2c1O[C@H](c1ccc(O)c(O)c1)[C@H](O)C2 [PB2, procyanidin B2] |  |  | type of interaction with α-glucosidase (α-glucosidase): noncompetitive interaction; IC50 Protein Glycation ([2]; bovine, 6 days, pH 7.4): 2.20 ± 0.01 ^A µg/mL |

— PMC9610465, “The Inhibition of α-Glucosidase, α-Amylase and Protein Glycation by Phenolic Extracts of Cotoneaster bullatus, Cotoneaster zabelii, and Cotoneaster integerrimus Leaves and Fruits: Focus on Anti-Hyperglycemic Activity and Kinetic Parameters” (Molecules, 2022)
